In ChEMBL document CHEMBL1143329, “Discovery and SAR of benzyl phenyl ethers as inhibitors of bacterial phenylalanyl-tRNA synthetase” (Bioorg Med Chem Lett, 2009):
Values after ≈ are worked out from the molar mass of the structure shown.

What was measured:
[1] = Inhibition of Streptococcus pneumoniae phenylalanyl-tRNA synthetase
[2] = Inhibition of Haemophilus influenzae phenylalanyl-tRNA synthetase
Haemophilus influenzae [3] = assay: Antibacterial activity against wild type Haemophilus influenzae; format: functional
Haemophilus influenzae [4] = assay: Antibacterial activity against AcrA pump deficient Haemophilus influenzae; format: functional
Streptococcus pneumoniae = assay: Antibacterial activity against wild type Streptococcus pneumoniae; format: functional
Cytochrome P450 1A2 = molecular target: T1, Cytochrome P450 1A2 (Homo sapiens, UniProt P05177); assay: (§1) Inhibition of human CYP1A2 at 3 uM; format: ADME; details: 3 µM
T1 sequence (P05177 whole entry): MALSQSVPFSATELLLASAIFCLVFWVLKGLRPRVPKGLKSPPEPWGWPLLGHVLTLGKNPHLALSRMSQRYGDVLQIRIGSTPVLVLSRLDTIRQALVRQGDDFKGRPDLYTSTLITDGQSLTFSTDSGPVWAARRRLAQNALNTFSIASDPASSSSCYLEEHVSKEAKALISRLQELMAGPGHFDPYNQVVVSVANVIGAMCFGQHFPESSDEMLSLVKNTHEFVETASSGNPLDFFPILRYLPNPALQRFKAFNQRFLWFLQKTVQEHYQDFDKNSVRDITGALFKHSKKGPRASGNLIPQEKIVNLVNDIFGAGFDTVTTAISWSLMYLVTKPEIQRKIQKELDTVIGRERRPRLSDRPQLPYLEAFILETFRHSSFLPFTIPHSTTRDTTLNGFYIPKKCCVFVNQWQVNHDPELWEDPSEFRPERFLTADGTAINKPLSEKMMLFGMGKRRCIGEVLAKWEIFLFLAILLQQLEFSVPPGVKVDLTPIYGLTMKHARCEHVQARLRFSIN

Cytochrome P450 2C9 = Cytochrome P450 2C9 (Homo sapiens, UniProt P11712); assay: Inhibition of human CYP2C9 at 3 uM; format: ADME
[5] = Membrane permeability by PAMPA; format: ADME; details: for Papp: read-out: Activity
[6] = molecular target: Voltage-gated inwardly rectifying potassium channel KCNH2 (Homo sapiens, UniProt Q12809); assay: Displacement of [3H]dofetilide from human ERG channel
Cytochrome P450 2D6 = Cytochrome P450 2D6 (Homo sapiens, UniProt P10635); assay: Inhibition of human CYP2D6 at 3 uM; format: ADME
Cytochrome P450 3A4 = Cytochrome P450 3A4 (Homo sapiens, UniProt P08684); assay: Inhibition of human CYP3A4 at 3 uM; format: ADME
[7] = Apparent intrinsic clearance in human liver microsomes; format: ADME, Microsome
CYP1A2 = molecular target: T2, CYP1A2 (Homo sapiens, UniProt P05177); assay: as §1; format: ADME; details: read-out: Activity
T2 sequence (P05177 whole entry): T1 sequence (P05177 whole entry)

hERG (KCNH2) = hERG (KCNH2) (Homo sapiens, UniProt Q12809); assay: Displacement of [3H]dofetilide from human ERG channel at 10 nM; details: probe [3H]dofetilide, read-out: Activity
Chain of hERG (KCNH2) (Q12809 whole entry): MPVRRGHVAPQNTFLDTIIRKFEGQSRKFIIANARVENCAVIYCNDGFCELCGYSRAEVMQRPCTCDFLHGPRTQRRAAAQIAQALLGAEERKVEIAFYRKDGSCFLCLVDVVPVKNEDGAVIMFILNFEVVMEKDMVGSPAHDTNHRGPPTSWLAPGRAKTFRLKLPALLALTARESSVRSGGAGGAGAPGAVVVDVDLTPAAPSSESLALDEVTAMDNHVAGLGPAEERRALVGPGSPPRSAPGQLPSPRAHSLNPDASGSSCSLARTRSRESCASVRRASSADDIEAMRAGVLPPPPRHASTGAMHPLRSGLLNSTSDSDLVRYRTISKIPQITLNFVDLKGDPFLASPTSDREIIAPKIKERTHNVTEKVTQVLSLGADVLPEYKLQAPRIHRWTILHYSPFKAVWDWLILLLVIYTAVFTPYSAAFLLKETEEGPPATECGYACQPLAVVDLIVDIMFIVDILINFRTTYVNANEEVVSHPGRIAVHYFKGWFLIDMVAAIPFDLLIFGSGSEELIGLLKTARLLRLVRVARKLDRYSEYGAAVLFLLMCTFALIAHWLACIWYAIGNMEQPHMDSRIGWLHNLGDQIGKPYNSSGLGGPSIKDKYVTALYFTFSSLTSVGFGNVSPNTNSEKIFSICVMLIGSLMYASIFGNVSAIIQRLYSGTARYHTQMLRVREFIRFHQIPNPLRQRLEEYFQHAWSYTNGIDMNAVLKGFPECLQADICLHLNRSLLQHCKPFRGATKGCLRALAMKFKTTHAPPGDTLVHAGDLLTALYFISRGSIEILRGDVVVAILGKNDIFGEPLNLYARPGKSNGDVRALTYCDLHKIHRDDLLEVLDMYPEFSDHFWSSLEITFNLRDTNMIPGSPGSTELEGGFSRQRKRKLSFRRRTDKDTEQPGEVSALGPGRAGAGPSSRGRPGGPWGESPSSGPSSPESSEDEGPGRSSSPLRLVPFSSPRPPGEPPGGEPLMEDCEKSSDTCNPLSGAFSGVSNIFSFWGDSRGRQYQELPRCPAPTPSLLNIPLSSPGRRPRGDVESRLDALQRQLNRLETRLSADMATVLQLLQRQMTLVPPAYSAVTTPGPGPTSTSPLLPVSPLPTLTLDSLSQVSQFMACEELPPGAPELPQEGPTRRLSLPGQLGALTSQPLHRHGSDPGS

Chain of Cytochrome P450 3A4 (P08684 whole entry): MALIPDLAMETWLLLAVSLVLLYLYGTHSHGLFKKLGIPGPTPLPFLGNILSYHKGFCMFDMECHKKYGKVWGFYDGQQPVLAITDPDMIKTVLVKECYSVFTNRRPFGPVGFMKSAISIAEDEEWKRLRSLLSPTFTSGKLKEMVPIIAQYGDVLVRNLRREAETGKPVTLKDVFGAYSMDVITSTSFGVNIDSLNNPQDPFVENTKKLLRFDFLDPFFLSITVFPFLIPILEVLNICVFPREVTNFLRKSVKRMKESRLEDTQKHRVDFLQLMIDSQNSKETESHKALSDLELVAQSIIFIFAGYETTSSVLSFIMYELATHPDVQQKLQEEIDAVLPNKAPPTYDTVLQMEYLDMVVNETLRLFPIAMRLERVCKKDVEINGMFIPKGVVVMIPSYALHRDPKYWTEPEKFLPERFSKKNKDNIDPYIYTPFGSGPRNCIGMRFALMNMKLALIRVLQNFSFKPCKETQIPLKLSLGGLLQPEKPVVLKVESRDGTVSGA
Chain of Cytochrome P450 2D6 (P10635 whole entry): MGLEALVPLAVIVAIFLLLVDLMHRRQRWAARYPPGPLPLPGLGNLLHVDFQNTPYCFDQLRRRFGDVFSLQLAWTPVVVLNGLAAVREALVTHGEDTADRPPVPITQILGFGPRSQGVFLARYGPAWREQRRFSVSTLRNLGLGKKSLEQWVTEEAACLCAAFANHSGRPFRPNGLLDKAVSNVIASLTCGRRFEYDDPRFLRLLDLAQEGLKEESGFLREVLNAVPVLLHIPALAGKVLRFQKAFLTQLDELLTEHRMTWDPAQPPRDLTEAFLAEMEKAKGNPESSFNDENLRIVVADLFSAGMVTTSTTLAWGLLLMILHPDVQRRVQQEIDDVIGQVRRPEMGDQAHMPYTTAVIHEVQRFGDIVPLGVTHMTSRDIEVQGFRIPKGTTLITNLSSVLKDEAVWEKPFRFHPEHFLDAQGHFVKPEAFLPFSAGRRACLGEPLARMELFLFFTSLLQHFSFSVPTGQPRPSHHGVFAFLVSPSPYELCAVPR
Chain of Voltage-gated inwardly rectifying potassium channel KCNH2 (Q12809 whole entry): as the sequence (Q12809 whole entry) above
Chain of Cytochrome P450 2C9 (P11712 whole entry): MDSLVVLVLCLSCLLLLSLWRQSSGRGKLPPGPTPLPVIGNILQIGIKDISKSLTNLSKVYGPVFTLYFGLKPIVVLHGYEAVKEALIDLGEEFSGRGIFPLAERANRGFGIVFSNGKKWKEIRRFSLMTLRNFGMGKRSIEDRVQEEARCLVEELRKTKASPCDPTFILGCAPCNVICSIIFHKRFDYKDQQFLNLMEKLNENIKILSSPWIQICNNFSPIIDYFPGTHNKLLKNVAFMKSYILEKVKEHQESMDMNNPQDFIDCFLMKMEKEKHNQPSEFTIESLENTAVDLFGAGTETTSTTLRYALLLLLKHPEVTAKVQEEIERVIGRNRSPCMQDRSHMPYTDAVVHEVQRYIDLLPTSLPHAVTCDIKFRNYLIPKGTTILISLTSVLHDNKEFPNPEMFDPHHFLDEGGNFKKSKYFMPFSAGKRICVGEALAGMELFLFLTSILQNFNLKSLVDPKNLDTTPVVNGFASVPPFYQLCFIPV

Row | Compound | IC50 [1] [µM] | IC50 [2] [µM] | further results
1 | CCc1nnc(-c2ccc(OCc3cccc(Cl)c3)c(Cl)c2)o1 | 76 | 11 | –
2 | Cc1nnc(-c2ccc(OCc3cccc(Cl)c3)c(Cl)c2)o1 | 95 | 6.6 | –
3 | COC(=O)c1ccc(OCc2cccc(Cl)c2)cc1 | 12 | 3.1 | –
4 | COC(=O)c1ccc(CNc2cccc(Cl)c2)cc1 | > 64 | 57 | –
5 | CC(CO)NC(=O)c1ccc(OCc2cccc(Cl)c2)c(Cl)c1 (stereo unspecified) | 483 | 29 | MIC (Haemophilus influenzae [3]): > 32 µg/mL; MIC (Haemophilus influenzae [4]): 4 µg/mL (≈ 11.3 µM); MIC (Streptococcus pneumoniae): 32 µg/mL (≈ 90.3 µM)
6 | COC(=O)c1ccc(NC(=O)c2cccc(Cl)c2)c(C)c1 | > 64 | > 64 | –
7 | COC(=O)c1ccc(C(=O)Nc2cccc(Cl)c2)cc1 | > 64 | > 64 | –
8 | COC(=O)c1ccc(/C=C/c2cccc(Cl)c2)c(C)c1 | 0.2 | 0.13 | –
9 | NC(=O)c1nnc(-c2cc(Cl)c(OCc3cccc(Cl)c3)cn2)o1 | 60 | 2.7 | –
10 | NC(=O)Cc1nnc(-c2ccc(OCc3cccc(Cl)c3)c(Cl)c2)o1 | 126 | 1.7 | –
11 | CC(CO)NC(=O)c1ccc(OCc2cc(Cl)ccn2)c(Cl)c1 (stereo unspecified) | 43 | 4.6 | MIC (Haemophilus influenzae [3]): 32 µg/mL (≈ 90.1 µM); MIC (Haemophilus influenzae [4]): 2 µg/mL (≈ 5.63 µM); MIC (Streptococcus pneumoniae): 32 µg/mL (≈ 90.1 µM)
12 | O=C(O)Cc1nnc(-c2ccc(OCc3cccc(Cl)c3)c(Cl)c2)o1 | 110 | 11 | –
13 | NC(=O)c1nnc(-c2ccc(OCc3cccc(Cl)c3)c(Cl)c2)o1 | 81 | 2.6 | –
14 | COC(=O)c1ccc(OCc2cccc(Cl)c2)c(Cl)c1 | 0.091 | 0.017 | –
15 | CN1CCN(C(=O)c2ccc(OCc3cccc(Cl)c3)c(Cl)c2)CC1 | 2.3 | 0.15 | –
16 | COC(=O)c1ccc(NCc2cccc(Cl)c2)c(C)c1 | 6.1 | 3.5 | –
17 | COC(=O)c1ccc(N(C)Cc2cccc(Cl)c2)c(C)c1 | 3.5 | 0.17 | –
18 | Cc1cc(C(=O)N2CCN(C)C(=O)C2)ccc1NS(=O)(=O)c1cccc(Cl)c1 | > 64 | > 64 | –
19 | Cc1cc(C(=O)N2CCN(C(=O)C3CCCO3)CC2)ccc1OCc1cccc(Cl)c1 (stereo unspecified) | 3.7 | 0.067 | Activity (Cytochrome P450 1A2): Not Active; Activity (Cytochrome P450 2C9): Not Active; Papp [5]: 10.8 ×10⁻⁶ cm/s; Ki [6]: 0.0239 µM; Activity (Cytochrome P450 2D6): Not Active; Activity (Cytochrome P450 3A4): Not Active; CLint scaled [7]: 55.1 mL/min/kg
20 | Cc1cc(C(=O)N2CCN(C(=O)C3CCCO3)CC2)ccc1CC(O)c1cccc(Cl)c1 (stereo unspecified) | 11 | 0.28 | –
21 | Cc1cc(C(=O)N2CCC(C(N)=O)CC2)ccc1OCc1cccc(Cl)c1 | – | 0.15 | –
22 | Cc1cc(C(=O)N2CCC(C(N)=O)CC2)ccc1CCc1cccc(Cl)c1 | 46 | 0.36 | –
23 | Cn1c(-c2cccc(Cl)c2)nc(=O)c2cc(C(=O)N3CCC(C(N)=O)CC3)ccc21 | > 64 | > 64 | –
24 | CCN(CC)CCN(C)S(=O)(=O)c1ccc(OCc2cccc(Cl)c2)c(Cl)c1 | 79 | 1.9 | –
25 | CC(=O)Nc1nnc(-c2ccc(OCc3cccc(Cl)c3)c(Cl)c2)o1 | 28 | 1.3 | –
26 | Cc1ccc(C(=O)N2CCN(S(=O)(=O)c3ccc(OCc4cccc(Cl)c4)c(Cl)c3)CC2)cc1 | 12 | 1.9 | –
27 | COC(=O)c1ccc(OCc2cccc(Cl)c2)c(C)c1 | 0.097 | 0.034 | –
28 | COC(=O)c1ccc(OCc2cc(F)cc(F)c2)c(Cl)c1 | 0.16 | 0.03 | –

Row | Compound | IC50 [1] [µM] | IC50 [2] [µM] | further results
29 | COC(=O)c1ccc(OCc2ccc(F)c(F)c2)c(Cl)c1 | 0.12 | 0.0087 | –
30 | CN1CCN(C(=O)c2ccc(COc3cccc(Cl)c3)c(Cl)c2)CC1 | – | 0.84 | –
31 | Cc1cc(C(=O)N2CCN(C)CC2)ccc1C(CO)c1cccc(Cl)c1 (stereo unspecified) | > 64 | > 64 | –
32 | CN1CCN(C(=O)c2ccc(OCc3cccc(Cl)c3)c(Cl)c2)CC1=O | 1.3 | 0.038 | Activity (Cytochrome P450 1A2): Not Active; Activity (Cytochrome P450 2C9): Not Active; Papp [5]: 16.4 ×10⁻⁶ cm/s; Ki [6]: 0.0372 µM; Activity (Cytochrome P450 2D6): Not Active; Activity (Cytochrome P450 3A4): Not Active; CLint scaled [7]: < 7.6 mL/min/kg
33 | Nc1nnc(-c2cc(Cl)c(OCc3cccc(Cl)c3)cn2)o1 | 50 | – | –
34 | CN1CCN(C(=O)c2ccc(CS(=O)(=O)c3cccc(Cl)c3)c(Cl)c2)CC1=O | > 64 | > 64 | –
35 | O=C(NCCCCO)c1ccc(OCc2cc(Cl)ccn2)c(Cl)c1 | 34 | 16 | –
36 | O=C(NCCN1CCOCC1)c1ccc(OCc2cccc(Cl)c2)c(Cl)c1 | 438 | 14 | –
37 | OCCc1nnc(-c2ccc(OCc3cccc(Cl)c3)c(Cl)c2)o1 | 87 | 3.1 | –
38 | O=C(NCCN1CCOCC1)c1cc(Cl)c(OCc2cccc(Cl)c2)cn1 | 65 | 8 | MIC (Haemophilus influenzae [3]): 32 µg/mL (≈ 78 µM); MIC (Haemophilus influenzae [4]): 1 µg/mL (≈ 2.44 µM); MIC (Streptococcus pneumoniae): 8 µg/mL (≈ 19.5 µM)
39 | O=C(NC1CCC(O)CC1)c1cc(Cl)c(OCc2cccc(Cl)c2)cn1 (stereo unspecified) | 28 | 1.5 | –
40 | COC(=O)c1ccc([C@H](O)[C@@H](O)c2cccc(Cl)c2)c(C)c1 | > 64 | 6.5 | –
41 | COC(=O)c1ccc([C@@H](O)[C@H](O)c2cccc(Cl)c2)c(C)c1 | > 64 | > 64 | –
42 | Clc1cccc(COc2ccc(-c3nnco3)cc2Cl)c1 | 156 | 11 | –
43 | CSc1nnc(-c2ccc(OCc3cccc(Cl)c3)c(Cl)c2)o1 | 81 | 5.5 | –
44 | C[S+]([O-])c1nnc(-c2ccc(OCc3cccc(Cl)c3)c(Cl)c2)o1 (stereo unspecified) | 36 | 1.5 | –
45 | O=C(NCC1CC1)c1ccc(OCc2cccc(Cl)c2)c(Cl)c1 | 393 | 57 | –
46 | Clc1cccc(COc2cnc(-c3nnco3)cc2Cl)c1 | 97 | 12 | inhibition at 3 µM (CYP1A2): 38%; Papp [5]: 5.31 ×10⁻⁶ cm/s; CLint scaled [7]: < 10.1 mL/min/kg
47 | O=C(NCC1CC1)c1cc(Cl)c(OCc2cccc(Cl)c2)cn1 | 50 | 30 | –
48 | COC(=O)c1ccc(CN(C)c2cccc(Cl)c2)cc1 | > 64 | > 64 | –
49 | CN1CCN(C(=O)c2ccc(S(=O)(=O)Nc3cccc(Cl)c3)c(Cl)c2)CC1=O | > 64 | > 64 | –
50 | Nc1nnc(-c2ccc(OCc3cccc(Cl)c3)c(Cl)c2)o1 | 42 | 2.3 | –
51 | CCn1nccc1NC(=O)c1cc(Cl)c(OCc2cccc(Cl)c2)cn1 | 34 | 24 | –
52 | CS(=O)(=O)c1nnc(-c2ccc(OCc3cccc(Cl)c3)c(Cl)c2)o1 | 53 | 2.1 | MIC (Haemophilus influenzae [3]): 32 µg/mL (≈ 80.1 µM); MIC (Haemophilus influenzae [4]): 1 µg/mL (≈ 2.5 µM); MIC (Streptococcus pneumoniae): > 32 µg/mL
53 | CN1CCN(C(=O)c2ccc(C[S+]([O-])c3cccc(Cl)c3)c(Cl)c2)CC1=O (stereo unspecified) | 23 | 2.4 | –
54 | CC(=O)NC1CCN(Cc2ccc(OCc3ccc(Cl)cc3)c(Cl)c2)C1 (stereo unspecified) | 2.2 | 0.24 | inhibition at 0.01 µM (hERG (KCNH2)): 89%; Activity [5]: Not Active; CLint scaled [7]: 9.63 mL/min/kg
55 | O=C(NCCCCO)c1ccc(OCc2cccc(Cl)c2)c(Cl)c1 | 254 | 22 | Activity (Cytochrome P450 1A2): Not Active; Activity (Cytochrome P450 2C9): Not Active; Papp [5]: 1.22 ×10⁻⁶ cm/s; Ki [6]: > 0.1 µM; Activity (Cytochrome P450 2D6): Not Active; Activity (Cytochrome P450 3A4): Not Active; CLint scaled [7]: < 7.6 mL/min/kg
